Experiments:
[1] = tested on: subjects with Relapsing Remitting Multiple Sclerosis (RRMS); test: 6-month placebo-controlled MRI study in Relapsing Remitting Multiple Sclerosis (CE lesions, T2 lesions, brain volume); type: in vivo, human; conditions: for cumulative CE lesions / reduction of CE lesion burden vs. placebo / cumulative CE lesions, LSMean: over 6 months; for cumulative CE lesions: complete case analysis, placebo 7.8; for cumulative CE lesions, LSMean: placebo LSMean 6.49
Protocol: 227 treatment-naive adult subjects (mean age 31 [range 18-50]; 65% female) were randomized into one of three arms: oral CHS-131 at 3 mg (n=76); oral CHS-131 at 1 mg (n=76); placebo (n=75), at 21 sites in Russia. 97% completed Part 1. Inclusion criteria: Relapsing Remitting Multiple Sclerosis (RRMS) for ≤3 years, ≥1 gadolinium-positive lesion within 1-year of enrollment, and an EDSS≤6 at screening. The patients underwent monthly MRI examinations with contrast to identify new inflammatory lesions. All […] were read blinded at the Buffalo Neuroimaging Center (Buffalo, N.Y.). In addition to CE lesions the images were scored for cumulative new/enlarged T2 lesions, and serial cortical and whole brain volumetric analysis.

HbA1c [2] = test: 24-week randomized, double-blind, placebo-controlled study: HbA1c levels in subjects with type 2 diabetes; type: in vivo, human; conditions: 24 weeks
HbA1c [3] = conditions: DePaoli et al. Diabetes Care 2014; cited from earlier work
adiponectin [4] = test: 24-week randomized, double-blind, placebo-controlled study: serum adiponectin levels in subjects with type 2 diabetes; type: in vivo, human; conditions: for Mean Change in adiponectin from baseline to Week 24: LOCF; for Mean Change in adiponectin from baseline to Week 24 / Mean Adiponectin, Week 24 / Mean Adiponectin, Week 0: type 2 diabetes, serum; for Mean Adiponectin, Week 0: baseline (Week 0)
Protocol: A randomized, double-blind, placebo-controlled, 24-week study was conducted in which adiponectin levels were measured. […] 367 subjects with type 2 diabetes (TD2)—a disease in which patient adiponectin levels are reduced—were randomly assigned to receive either 0.5, 1, 2 or 3 milligrams (“mg”) of INT131 besylate, 45 mg of pioglitazone or placebo daily for 24 weeks. To measure adiponectin levels blood was drawn at Weeks 0, 2, 6, 12 and 24.
At baseline (Week 0) mean adiponectin levels were 1.94 micrograms per milliliter (“μg/mL”). The mean adiponectin levels at baseline and Week 24, and the mean change in adiponectin levels from baseline (Week 0) to Week 24 are disclosed in Table 1, below. The standard deviation for samples tested in each group is listed in (parenthesis). Mean baseline adiponectin values were similar for the treatment groups.

[5] = subjects taking INT131 vs pioglitazone; DePaoli et al. Diabetes Care 2014; cited from earlier work
adiponectin [6] = test: 14-day study of serum adiponectin levels in healthy subjects; type: in vivo, human
Protocol: A study was conducted to determine the effect of INT131 on serum adiponectin levels. Thirty healthy subjects were randomly selected to receive either placebo, 0.1 mg INT131, 1 mg INT131 or 4 mg INT131 daily for 14 days. To measure adiponectin levels blood was drawn at Days 1, 4, 8 and 14.

[7] = in words; cited from earlier work

O=S(=O)(Nc1cc(Cl)c(Oc2cnc3ccccc3c2)c(Cl)c1)c1ccc(Cl)cc1Cl [INT131]
cumulative CE lesions ([1]; 1 mg oral): 7.6
reduction of CE lesion burden vs. placebo ([1]; 1 mg oral, p=ns, RRMS): 21%
cumulative CE lesions, LSMean ([1]; 1 mg oral): 5.15
reduction of new/enlarged T2 lesions compared to placebo ([1]; 1 mg, p=ns, RRMS): 14%
cumulative CE lesions ([1]; 3 mg daily oral): 4.2 lesions
reduction of CE lesion burden vs. placebo ([1]; 3 mg daily oral, p=0.003, RRMS): 52%
cumulative CE lesions, LSMean ([1]; 3 mg daily oral): 3.10
less cortical volume loss compared to placebo ([1]; 3 mg daily, 6 months, RRMS): 34.2%
less whole brain volume loss compared to placebo ([1]; 3 mg daily, 6 months, RRMS): 50%
reduction of new/enlarged T2 lesions compared to placebo ([1]; 3 mg, p=0.0767, RRMS): 30%
reduction of HbA1c levels as compared to placebo (HbA1c [2]; 1, 2, and 3 mg doses daily): statistically significant reduction
reduction of HbA1c levels compared with 45 mg of pioglitazone (HbA1c [2]; 2 and 3 mg doses daily): at least as well as 45 mg of pioglitazone
efficacy in reducing HbA1c levels versus 45 mg of pioglitazone (HbA1c [3]): equally efficacious
Mean Change in adiponectin from baseline to Week 24 (adiponectin [4]; 0.5 mg daily): 0.56 µg/mL
Mean Change in adiponectin from baseline to Week 24 (adiponectin [4]; 1 mg daily): 1.28 µg/mL
adiponectin treatment comparison with placebo (adiponectin [4]; 1 mg, 2 mg, and 3 mg doses, p≤0.0109): statistically significant
Mean Change in adiponectin from baseline to Week 24 (adiponectin [4]; 2 mg daily): 3.27 µg/mL
Mean Change in adiponectin from baseline to Week 24 (adiponectin [4]; 3 mg daily): 3.83 µg/mL
upregulation of serum adiponectin levels compared with pioglitazone (adiponectin [4]; 2 or 3 mg INT131 vs at least 22 times the amount of pioglitazone): greater upregulation
Mean Adiponectin, Week 24 (adiponectin [4]; 0.5 mg daily): 2.28 µg/mL
Mean Adiponectin, Week 24 (adiponectin [4]; 1 mg daily): 3.15 µg/mL
Mean Adiponectin, Week 24 (adiponectin [4]; 2 mg daily): 5.14 µg/mL
Mean Adiponectin, Week 24 (adiponectin [4]; 3 mg daily): 5.83 µg/mL
Mean Adiponectin, Week 0 (adiponectin [4]; 0.5 mg INT131 besylate daily group): 1.73 µg/mL
Mean Adiponectin, Week 0 (adiponectin [4]; 1 mg INT131 besylate daily group): 1.87 µg/mL
Mean Adiponectin, Week 0 (adiponectin [4]; 2 mg INT131 besylate daily group): 1.87 µg/mL
Mean Adiponectin, Week 0 (adiponectin [4]; 3 mg INT131 besylate daily group): 2.00 µg/mL
side effects versus pioglitazone [5]: less edema, weight gain, and hemodilution
change in serum adiponectin levels Day 1 to Day 14 and over placebo (adiponectin [6]; 0.1 mg daily for 14 days): no significant change
change in serum adiponectin levels over placebo and from Day 1 to Day 14 (adiponectin [6]; 1 mg or 4 mg daily for 14 days): significant change
crossing of the blood brain barrier [7]: readily crosses the blood brain barrier

CCc1ccc(CCOc2ccc(CC3SC(=O)NC3=O)cc2)nc1 (stereo not shown) [Pioglitazone, pioglitazone, reference compound]
Mean Change in adiponectin from baseline to Week 24 (adiponectin [4]; 45 mg daily): 2.96 µg/mL
Mean Adiponectin, Week 24 (adiponectin [4]; 45 mg daily): 5.28 µg/mL
Mean Adiponectin, Week 0 (adiponectin [4]; 45 mg pioglitazone daily group): 2.32 µg/mL
